One series deals with MM cell lines. The series can be described thus: BLI-based cytotoxicity assay using LUC-transduced MM cell lines. Also on record: species or system human. How it is done: Cell lines and culture: Luciferase (LUC)-transduced MM cell lines RPMI 8226, JJN3, UM9, MM1.s, U266, L363, and OPM-2 were cultured in RPMI 1640 (Life Technologies), supplemented with 10% heat-inactivated HyClone FetalClone I serum (GE Healthcare Life Sciences) and (penicillin, 10.000 U/mL; streptomycin, […]; InVitrogen,). HS-5 was cultured in DMEM (Life Technologies), supplemented with heat-inactivated FBS (Sigma) and antibiotics.

Another series relates to BMMSCs. The series can be described thus: BMMSC viability (Cell TiterGlo). The method, then:
A pool (n=12) of newly diagnosed-MM patient derived BMMSCs were treated with serial concentrations of FL118. Cell viability was determined by Cell TiterGlo after indicated period of time. Error bars represent the SD of three independent experiments.
Bone Marrow derived Mesenchymal stromal cells (BMMSCs): Diagnostic BM aspirations from MM patients were used to isolate BMMNCs and culture adherent BMMSCs as described elsewhere (Prins H J, et al. Tissue Eng Part A. 2009, 15:3741-3751). To minimalize inter-individual variation, all experiments were performed with cells from a pool of BMMSCs derived from twelve MM patients at passage 3.
In general terms: ATP-based viability assays read luminescence as a measure of living cells.

The test system of series [1] is pro-apoptotic signaling, cleavage of caspase-3 and PARP. The series can be described thus: Western blotting of FL118-treated MM cell lines. It is filed as cell-based, human. How it is done: Western blotting: Untreated or FL118 treated (16 h) MM cell lines were washed twice with ice-cold PBS. Cell pellets were then snap-frozen and stored at −80° C. until further use. Pellets were dissolved in Radioimmunoprecipitation (RIPA) lysis buffer, supplemented with protease inhibitor cocktail (Roche) and incubated on ice for 45 minutes. Lysates were centrifuged at 14000 g for 10 minutes at 4° C. and supernatant was collected. Protein concentrations were determined by a DC protein assays (Bio-Rad). Samples were separated on 4-20% Mini-protean TGX precast gels (Bio-Rad) and proteins were transferred to Immobilon-FL PVDF membrane (Merck Millipore). After 1 h blocking with Odyssey Block Buffer (LI-COR) at room temperature, membranes were incubated with primary antibodies over night at 4° C. (anti-Mcl-1, anti-survivin Santa Cruz; anti-XIAP, anti-Bcl-2, anti-PUMA, anti-p21 Waf/Cip1, anti-PARP, anti-caspase-3 Cell Signaling Technology; anti-p53 DAKO; anti-NOXA, anti-Actin Merck Millipore). Blots were visualized by Odyssey infrared imaging (LICOR Biosciences) using IRDye 680 Goat-anti-Rabbit (LI-COR Lincoln) and IRDye 800CW Goat-anti-Mouse IgG (LI-COR Lincoln) according to manufacturer's instructions. Band intensities were quantified using Odyssey software.
(In general: In western blotting, separated proteins are transferred to a membrane and probed.)

A further series relates to UM9 MM tumors. The series can be described thus: In vivo efficacy in humanized xenograft RAG2-/-γc-/- model. Also on record: species or system mice. The method, then: In vivo efficacy of FL118: The in vivo efficacy of FL118 was studied in a xenograft RAG2^−/−γc^−/− marine model in which human MM cells are grown in a humanized BM like microenvironment generated by subcutaneous inoculation of MSC coated Hybrid scaffolds (4 scaffolds per mice) as described elsewhere (Groen R W, et al. Blood 2012,120:e9-e16). 24 hours before tumor inoculation (UM9; 5×10^5 cells/scaffold) mice were pre-conditioned with 18 mg/kg Busilvex. One week after inoculation, when there was visible tumor growth in all scaffolds by BLI, mice were randomly divided in four groups which were treated as follows: (1) vehicle control (n=3); (2) 0.05 mg/kg FL118 (n=4); (3) 0.1 mg/kg FL118 (n=4); (4) 0.2 mg/kg FL118 (n=4). FL118 or vehicle was administrated i.v. daily for five times. Tumor growth was monitored by weekly BLI measurements as previously described (Groen R W, et al. Blood 2012,120:e9-e16). All animal experiments were conducted for animal experimentation and were in compliance with the Dutch Animal Experimentation Act.
In general terms: Xenograft models place foreign cells or tissue in a host animal.

The next series addresses topoisomerase I (Top1) (Homo sapiens, UniProt P11387). Conditions: cited from earlier work.
The conditions of series [2]: cited from earlier work.
For series [3] the following is noted: BALE/cj mice; cited from earlier work.
For series [4] the following is noted: beagle dogs; cited from earlier work.
Another series relates to human tumors. The note with it: cited from earlier work.
The next series has as its system PDX tumors. The note with it: in vivo; cited from earlier work.
The subject of series [5] is control genes (p21cip1/waf1, dihydrofolate reductase, human thrombin receptor, thymidine kinase). The note with it: cited from earlier work.
The mark [6] stands for this setting: 0.2 mg/kg i.v. daily for five times.

SMILES strings stand for the structures. Read-outs that look alike come from different tables or passages of the source.

topoisomerase I (Top1), sequence (P11387 whole entry, species assumed): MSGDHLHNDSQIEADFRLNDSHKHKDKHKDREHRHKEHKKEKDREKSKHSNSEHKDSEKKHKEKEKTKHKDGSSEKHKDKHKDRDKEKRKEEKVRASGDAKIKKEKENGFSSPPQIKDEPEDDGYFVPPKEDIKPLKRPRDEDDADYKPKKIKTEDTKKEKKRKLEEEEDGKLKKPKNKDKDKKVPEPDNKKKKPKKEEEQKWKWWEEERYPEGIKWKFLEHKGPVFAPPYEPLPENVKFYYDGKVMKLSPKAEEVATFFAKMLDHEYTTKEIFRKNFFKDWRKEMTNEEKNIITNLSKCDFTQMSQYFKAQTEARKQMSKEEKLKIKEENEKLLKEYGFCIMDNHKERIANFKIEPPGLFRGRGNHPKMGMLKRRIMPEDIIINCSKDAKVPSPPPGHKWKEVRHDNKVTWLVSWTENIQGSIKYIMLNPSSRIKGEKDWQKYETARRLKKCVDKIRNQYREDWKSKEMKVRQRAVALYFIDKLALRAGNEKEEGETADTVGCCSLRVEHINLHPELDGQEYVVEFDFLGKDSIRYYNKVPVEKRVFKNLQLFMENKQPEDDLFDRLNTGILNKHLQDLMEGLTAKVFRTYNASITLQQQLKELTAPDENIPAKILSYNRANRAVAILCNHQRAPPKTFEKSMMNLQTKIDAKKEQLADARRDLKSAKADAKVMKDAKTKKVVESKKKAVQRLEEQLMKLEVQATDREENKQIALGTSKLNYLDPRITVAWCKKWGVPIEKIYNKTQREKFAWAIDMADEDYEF

In the case of `CC[C@@]1(O)C(=O)OCc2c1cc1n(c2=O)Cc2cc3cc4c(cc3nc2-1)OCO4` [FL118], in the series with MM cell lines (5 of 6 MM cell lines), the “lysis of MM cell lines in the presence of BMMSCs” value is “not reduced, or even increased”. In the series on MM cell lines (MM1.s and UM9 co-cultured with BMMSCs or HS-5, 48 hours), the “stroma-cell induced drug resistance against bortezomib and doxorubicin” value is “effectively abrogated”. Also, the “combination activity with melphalan or bortezomib” value with MM cell lines (MM cell lines, 48 hours) is given as “at least additive activity”. In addition, the “lysis of MM cell line in the presence of BMMSCs” value in the series with MM cell lines (cell line UM9) is recorded as “minimal reduction”. Moreover, the “toxicity against BMMSCs” value with BMMSCs (serial concentrations of FL118) is recorded as “minimal toxicity”. In the series with BMMSCs (up to a dose of 100 nM), the “toxic effects on BMMSCs” value was “no toxic effects”. The pro-apoptotic signaling result in series [1] (high- and intermediate-susceptible MM1.s and U266, 16 hours) is recorded as “promotes pro-apoptotic signaling”. Besides, the pro-apoptotic signaling entry in [1] (low-susceptible L363, 16 hours) is recorded as “not”. In the series with UM9 MM tumors (setting [6]), the “delay of tumor outgrowth” value is “up to 5 weeks” and the “effect on initial tumor volume” value is “reduce the initial tumor volume”. Also, the “in vivo anti-MM activity” value in the series on UM9 MM tumors (0.05, 0.1, 0.2 mg/kg i.v. daily for five times) is “dose-dependent”. Further, the “combination with anti-DR5 antibody Drozitumab, cell lysis” value with MM1.s cells (24 hours, PBMC effectors) was “great synergistic activity”. The “microenvironment-induced immune resistance, combination with Drozitumab” value in the series with MM1.s cells (presence of BMMSCs) is “reversed”. In addition, at topoisomerase I (Top1), the “concentration level for effects on Top1 activity” value is listed as “μM levels”. In series [2] (in vivo, po), the oral availability result is “orally available”. For the same compound, the “pharmacokinetics (PK) profile” value in series [2] (intravenous administration, accumulated in tumor, rapidly cleared in blood stream) was “favorable”. For the same compound, the “hematopoietic and biochemical toxicities” value in series [3] is listed as “very low”. The “hematopoietic and biochemical toxicities” value in series [4] is given as “very low”. Besides, the “activity on irinotecan and topotecan-resistant human tumors” value with human tumors (animal models) is reported as “effectively overcomes”. In addition, the tumor elimination result with human tumors (two-month experimental period) is “eliminate small and large volume human tumors without relapse in a high percentage of mice”. In the series on human tumors (versus irinotecan, topotecan, doxorubicin, 5-FU, gemcitabine, docetaxel, oxaliplatin, cytoxan, cisplatin), the “antitumor activity compared with FDA-approved anticancer drugs” value is recorded as “significantly better antitumor activity”. In the series on PDX tumors, the “effect on PDX tumors resistant/non-sensitive to FL118 and gemcitabine, combination with gemcitabine” value is reported as “eliminated the PDX tumors”; the “effect on PDX tumors, FL118 alone” value was “effectively eliminated PDX tumors”. Also, the “inhibitory effects on control genes” value in [5] is given as “no inhibitory effects”.

The values above are taken from patent US12268682B2, “Anticancer drug FL118 formulation for treatment of human cancer” (CANGET BIOTEKPHARMA, LLC, priority 2019, dated 2025).
